According to patent US20240376100A1 (Redona Therapeutics, Inc., priority 2021, published 2024):
pIC50: −log10 of the molar value. Structures can show the parent of a compound that is named as a salt.

Each compound was assayed against PAPD5 enzyme (Homo sapiens, UniProt Q8NDF8) (assay: PAPD5 assay (AMP incorporation onto 3'-terminus of RNA substrate, fluorescence quench)). Details: PAPD5 protein 0.3 nM, ATP 50 μM, 30 minutes preincubation, room temperature; read-out: Potency PAPD5 IC50.
Type: biochemical
Procedure: The purpose of the PAPD5 assay is to determine compound potency against PAPD5 enzyme through the measurement of IC50. Compound inhibition is measured as a function of AMP incorporation onto the 3′-terminus of an RNA substrate in the presence of active PAPD5, ATP, and inhibitor. The PAPD5 assay was done in a black, non-binding, 384 well plate (Corning #3575). All steps were performed at room temperature. For a typical assay, a 40 ul aliquot of assay buffer (50 mM HEPES pH 7.3, 20 mM KCl, 10 mM MgCl2, 10 mMM DTT, 0.01% Triton X-100, 40 U/ml RNAsin (Promega)) containing PAPD5 protein (final 10 concentration: 0.3 nM) and ATP (final concentration 50 μM) was added to each well. Next, 1 ul of compound in 100% DMSO is transferred from a compound dilution plate in which the compound is serially diluted. The plate was placed on a plate shaker for 30 seconds to produce mixing, then incubated for 30 minutes. Next, 10 ul of a 5× mix of RNA substrate (5′-fluorescein-AUAGAG-3′ (IDT)) and a DNA oligonucleotide that is complementary to the AMP modified RNA product (5′-TCTCTATT-3′-TAMRA, wherein the first two nucleotides are locked nucleic acids (IDT)) was added (final concentrations: 5 nM and 20 nM, respectively). The plate was placed on a plate shaker for 30 seconds to produce mixing then immediately placed in a Biotek Cytation 5 plate reader, and the time-dependent decrease in fluorescein fluorescence resulting from annealing of the TAMRA labeled quenching probe was recorded, using the kinetics mode of the reader (typical run time is 90 minutes). Reaction rates were obtained using linear fits to the early portion of progress curves. IC50 values were calculated using a four-parameter fit with 100% enzyme activity determined from the DMSO control and 0% activity from control samples lacking UTP.
“+” represents an IC50 value that is greater than 50 PM; “++” represents an IC50 value that is greater than 10 μM and equal to or less than 50 μM; “+++” represents an IC50 value that is greater than 1 μM and equal to or less than 10 μM; and “++++” represents an IC50 value that is equal to or less than 1 μM.

Sequence of PAPD5 enzyme (Q8NDF8 whole entry): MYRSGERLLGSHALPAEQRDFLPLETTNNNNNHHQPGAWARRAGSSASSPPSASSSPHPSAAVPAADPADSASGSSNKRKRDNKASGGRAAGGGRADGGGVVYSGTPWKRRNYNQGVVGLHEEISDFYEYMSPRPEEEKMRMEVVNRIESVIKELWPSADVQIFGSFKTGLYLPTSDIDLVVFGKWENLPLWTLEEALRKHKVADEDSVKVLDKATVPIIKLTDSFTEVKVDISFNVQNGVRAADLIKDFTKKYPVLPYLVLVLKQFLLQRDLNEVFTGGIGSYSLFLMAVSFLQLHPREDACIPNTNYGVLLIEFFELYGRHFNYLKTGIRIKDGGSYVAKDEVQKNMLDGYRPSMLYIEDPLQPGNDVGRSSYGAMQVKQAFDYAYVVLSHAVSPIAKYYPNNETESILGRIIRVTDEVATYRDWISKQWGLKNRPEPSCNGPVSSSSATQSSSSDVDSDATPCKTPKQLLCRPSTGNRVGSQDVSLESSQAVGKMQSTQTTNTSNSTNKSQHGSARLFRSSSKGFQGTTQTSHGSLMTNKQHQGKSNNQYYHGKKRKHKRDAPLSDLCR

pIC50, ≥ 6.00:
O=C(O)c1cn(CC2CCC2)c2cc(N3Cc4cccnc4C3)c(Cl)cc2c1=O [Example 33, 6-chloro-1-(cyclobutylmethyl)-7-(5,7-dihydro-6H-pyrrolo[3,4-b]pyridin-6-yl)-4-oxo-1,4-dihydroquinoline-3-carboxylic acid]
CC(C)Cn1cc(C(=O)O)c(=O)c2cc(Cl)c(N3Cc4cccnc4C3)nc21 [Example 34, 6-chloro-7-(5,7-dihydro-6H-pyrrolo[3,4-b]pyridin-6-yl)-1-isobutyl-4-oxo-1,4-dihydro-1,8-naphthyridine-3-carboxylic acid]
CN(C)C1CN(c2ccc(-n3cc(C(=O)O)c(=O)c4cc(C#N)c(N5Cc6cccnc6C5)cc43)cn2)C1 [Example 36, 6-cyano-7-(5,7-dihydro-6H-pyrrolo[3,4-b]pyridin-6-yl)-1-(6-(3-(dimethylamino)azetidin-1-yl)pyridin-3-yl)-4-oxo-1,4-dihydroquinoline-3-carboxylic acid]
N#Cc1cc2c(=O)c(C(=O)O)cn(-c3ccc(O)c(F)c3)c2cc1N1Cc2cccnc2C1 [Example 37, 6-cyano-7-(5,7-dihydro-6H-pyrrolo[3,4-b]pyridin-6-yl)-1-(3-fluoro-4-hydroxyphenyl)-4-oxo-1,4-dihydroquinoline-3-carboxylic acid]
N#Cc1cc2c(=O)c(C(=O)O)cn(-c3ccc(O)cc3F)c2cc1N1Cc2cccnc2C1 [Example 38, 6-cyano-7-(5,7-dihydro-6H-pyrrolo[3,4-b]pyridin-6-yl)-1-(2-fluoro-4-hydroxyphenyl)-4-oxo-1,4-dihydroquinoline-3-carboxylic acid]
COc1ccc(-c2ccn(-c3cc4c(cc3F)c(=O)c(C(=O)O)cn4-c3ccc(O)cc3F)n2)cc1 [Example 39, 6-fluoro-1-(2-fluoro-4-hydroxyphenyl)-7-(3-(4-methoxyphenyl)-1H-pyrazol-1-yl)-4-oxo-1,4-dihydroquinoline-3-carboxylic acid]
O=C(O)c1cn(Cc2ccccc2)c2nc(N3Cc4cccnc4C3)c(Cl)cc2c1=O [Example 40, 1-benzyl-6-chloro-7-(5,7-dihydro-6H-pyrrolo[3,4-b]pyridin-6-yl)-4-oxo-1,4-dihydro-1,8-naphthyridine-3-carboxylic acid]
COc1ccccc1Cn1cc(C(=O)O)c(=O)c2cc(Cl)c(N3Cc4cccnc4C3)nc21 [Example 41, 6-chloro-7-(5,7-dihydro-6H-pyrrolo[3,4-b]pyridin-6-yl)-1-(2-methoxybenzyl)-4-oxo-1,4-dihydro-1,8-naphthyridine-3-carboxylic acid]
COc1cccc(Cn2cc(C(=O)O)c(=O)c3cc(Cl)c(N4Cc5cccnc5C4)nc32)c1 [Example 42, 6-chloro-7-(5,7-dihydro-6H-pyrrolo[3,4-b]pyridin-6-yl)-1-(3-methoxybenzyl)-4-oxo-1,4-dihydro-1,8-naphthyridine-3-carboxylic acid]
CC(c1ccccc1)n1cc(C(=O)O)c(=O)c2cc(Cl)c(N3Cc4cccnc4C3)nc21 (centres unmarked) [Example 43, 6-chloro-7-(5,7-dihydro-6H-pyrrolo[3,4-b]pyridin-6-yl)-4-oxo-1-(1-phenylethyl)-1,4-dihydro-1,8-naphthyridine-3-carboxylic acid]
COc1ccc(Cn2cc(C(=O)O)c(=O)c3cc(Cl)c(N4Cc5cccnc5C4)nc32)cc1 [Example 44, 6-chloro-7-(5,7-dihydro-6H-pyrrolo[3,4-b]pyridin-6-yl)-1-(4-methoxybenzyl)-4-oxo-1,4-dihydro-1,8-naphthyridine-3-carboxylic acid]
N#Cc1cc2c(=O)c(C(=O)O)cn(-c3cnccn3)c2nc1N1Cc2cccnc2C1 [Example 45, 6-cyano-7-(5,7-dihydro-6H-pyrrolo[3,4-b]pyridin-6-yl)-4-oxo-1-(pyrazin-2-yl)-1,4-dihydro-1,8-naphthyridine-3-carboxylic acid]
Cc1nc(NC(=O)OC(C)(C)C)ccc1-n1cc(C(=O)O)c(=O)c2cc(Cl)c(N3Cc4cccnc4C3)cc21 [Example 46, 1-(6-((tert-butoxycarbonyl)amino)-2-methylpyridin-3-yl)-6-chloro-7-(5,7-dihydro-6H-pyrrolo[3,4-b]pyridin-6-yl)-4-oxo-1,4-dihydroquinoline-3-carboxylic acid]
N#Cc1cc2c(=O)c(C(=O)O)cn(-c3cnccn3)c2cc1N1Cc2cccnc2C1 [Example 47, 6-cyano-7-(5,7-dihydro-6H-pyrrolo[3,4-b]pyridin-6-yl)-4-oxo-1-(pyrazin-2-yl)-1,4-dihydroquinoline-3-carboxylic acid]
N#Cc1cc2c(=O)c(C(=O)O)cn(-c3ccc(N)nc3)c2cc1N1Cc2cccnc2C1 [Example 48, 1-(6-aminopyridin-3-yl)-6-cyano-7-(5,7-dihydro-6H-pyrrolo[3,4-b]pyridin-6-yl)-4-oxo-1,4-dihydroquinoline-3-carboxylic acid]
N#Cc1cc2c(=O)c(C(=O)O)cn(-c3ccc(N4CCC4)nc3)c2cc1N1Cc2cccnc2C1 [Example 49, 1-(6-(azetidin-1-yl)pyridin-3-yl)-6-cyano-7-(5,7-dihydro-6H-pyrrolo-[3,4-b]pyridin-6-yl)-4-oxo-1,4-dihydroquinoline-3-carboxylic acid]
COCCNc1ccc(-n2cc(C(=O)O)c(=O)c3cc(C#N)c(N4Cc5cccnc5C4)cc32)cn1 [Example 50, 6-cyano-7-(5,7-dihydro-6H-pyrrolo[3,4-b]pyridin-6-yl)-1-(6-((2-methoxyethyl)amino)pyridin-3-yl)-4-oxo-1,4-dihydroquinoline-3-carboxylic acid]
Nc1ccc(-n2cc(C(=O)O)c(=O)c3cc(Cl)c(N4Cc5cccnc5C4)nc32)cn1 [Example 51, 1-(6-aminopyridin-3-yl)-6-chloro-7-(5,7-dihydro-6H-pyrrolo[3,4-b]pyridin-6-yl)-4-oxo-1,4-dihydro-1,8-naphthyridine-3-carboxylic acid]
Nc1ccc(-n2cc(C(=O)O)c(=O)c3cc(Cl)c(N4Cc5cccnc5C4)cc32)cn1 [Example 52, 1-(6-aminopyridin-3-yl)-6-chloro-7-(5,7-dihydro-6H-pyrrolo[3,4-b]pyridin-6-yl)-4-oxo-1,4-dihydroquinoline-3-carboxylic acid]
N#Cc1cc2c(=O)c(C(=O)O)cn(-c3cccnc3)c2cc1N1Cc2cccc(F)c2C1 [Example 53, 6-cyano-7-(4-fluoroisoindolin-2-yl)-4-oxo-1-(pyridin-3-yl)-1,4-dihydroquinoline-3-carboxylic acid]
COc1cnc(-n2cc(C(=O)O)c(=O)c3cc(C#N)c(N4Cc5cccnc5C4)cc32)cn1 [Example 54, 6-cyano-7-(5,7-dihydro-6H-pyrrolo[3,4-b]pyridin-6-yl)-1-(5-methoxypyrazin-2-yl)-4-oxo-1,4-dihydro quinoline-3-carboxylic acid]
COc1ccc(-n2cc(C(=O)O)c(=O)c3cc(C#N)c(N4Cc5cccnc5C4)cc32)cn1 [Example 55, 6-cyano-7-(5,7-dihydro-6H-pyrrolo[3,4-b]pyridin-6-yl)-1-(6-methoxypyridin-3-yl)-4-oxo-1,4-dihydroquinoline-3-carboxylic acid]
N#Cc1cc2c(=O)c(C(=O)O)cn(-c3ccc(O)nc3)c2cc1N1Cc2cccnc2C1 [Example 56, 6-cyano-7-(5,7-dihydro-6H-pyrrolo[3,4-b]pyridin-6-yl)-1-(6-hydroxypyridin-3-yl)-4-oxo-1,4-dihydroquinoline-3-carboxylic acid]
CS(=O)(=O)Nc1ccc(-n2cc(C(=O)O)c(=O)c3cc(C#N)c(N4Cc5cccnc5C4)cc32)c(F)c1 [Example 57, 6-cyano-7-(5,7-dihydro-6H-pyrrolo[3,4-b]pyridin-6-yl)-1-(2-fluoro-4-(methylsulfonamido)phenyl)-4-oxo-1,4-dihydroquinoline-3-carboxylic acid]
COCCOc1ccc(-n2cc(C(=O)O)c(=O)c3cc(C#N)c(N4Cc5cccnc5C4)cc32)cn1 [Example 58, 6-cyano-7-(5,7-dihydro-6H-pyrrolo[3,4-b]pyridin-6-yl)-1-(6-(2-methoxyethoxy)pyridin-3-yl)-4-oxo-1,4-dihydroquinoline-3-carboxylic acid]
CN(C)CCOc1ccc(-n2cc(C(=O)O)c(=O)c3cc(C#N)c(N4Cc5cccnc5C4)cc32)cn1 [Example 59, 6-cyano-7-(5,7-dihydro-6H-pyrrolo[3,4-b]pyridin-6-yl)-1-(6-(2-(dimethylamino)ethoxy)pyridin-3-yl)-4-oxo-1,4-dihydroquinoline-3-carboxylic acid hydrochloride]
